Experimental data reported in US12264156B2, “Compounds and pharmaceutical compositions thereof for the treatment of diseases” (GALAPAGOS NV, priority 2018, dated 2025).

Key:
[1] = system: lung fibrosis induced by radiation; test: Radiation induced fibrosis mouse model; format: in vivo; details: 60 mg/kg p.o. b.i.d.
Excerpt: Pneumonitis and lung fibrosis are the major radiation-induced complications following thoracic radiotherapy, which is one of the major treatment of lung and breast cancers, lymphomas and hematopoietic transplant conditioning. The objective of this model was to evaluate the effect of a compound of the invention in lung fibrosis induced by radiation in mice (Favaudon et al. 2014), in particular on lung functionality (Flexivent) and fibrosis marker (Collagen I).
7 weeks old (18-22 gr) female C57BL/6J mice from Charles River (Écully, France), batch number S1672) were maintained on 12 h light/dark cycle at 22° C. with ad libitum access to tap water and food. […]
Body weight was recorded once a week, and on D23, lung function measurement under anesthesia was realized by Flexivent (Devos et al. 2017) for all groups (6 successful measurement per group) before sacrifice.
Lungs were collected and fixed in 4% formaldehyde for 24 h before embedding in paraffin. […] The anti-collagen I antibody was detected and amplified by ImmPress kit (Vector Laboratories, 3, Accent Park, Bakewell Road, Orton Southgate, Peterborough, PE2 6XS, United Kingdom, Cat #MP-7401). The immunostained sections were then scanned (Nanozoomer, Hamamatsu) before quantification by image analysis (CaloPix software, TRIBVN Healthcare). Data were expressed as percentage collagen I area per area of lung tissue. […]

[2] = system: mouse T cell transfer model; test: T cell transfer model (mice); format: in vivo; details: 30 mg/kg p.o. b.i.d.
Excerpt: DynaMag (Cat #12321D and 123203D) were obtained from Life Technologies Invitrogen (California, USA); DynabeadsFlowComp Mouse CD4+CD25-treg cells (Cat #11463D) were obtained from Life Technologies Invitrogen (California, USA), Fetal Bovine Serum (GIBCO), Cat #10270-106; RPMI (Gibco) Cat #32404-014 and D-PBS 1× without CaCl2 without MgCl2 (GIBCO), Cat #14190-086 were obtained ThermoFisher Scientific (Massachusetts, USA). Red Blood Cell (RBC) lysis buffer 10×, Cat #BLE420301 obtained from Ozyme (Montigny-le-Bretonneux, France). Cell strainer (70 μm grid), Cat #352350, obtained from Corning (New York, USA). […]
Fourteen days after cell injection, 100 μL of blood was sampled on each mouse under anesthesic conditions in order to determine CD4 level. […] Disease activity index was determined twice a week. Four to six weeks after the start of treatment, mice were sacrificed, blood was sampled and the complete colon was removed and rinsed with sterile PBS, it was measured and weighed in order to determine colon weight/length ratio. […]
There were 12 mice per group. The results were expressed as mean±SEM and statistical analysis was performed using non parametric test Kruskal-Wallis with Dunn's Multiple comparison test versus vehicle groups. […]

COc1cc(-c2cnc3cc(OCCN4CCOCC4)ccn23)cc2c1C(=O)N(CC(F)(F)F)CC2 [Cpd 88, 8-methoxy-6-[7-(2-morpholinoethoxy)imidazo [1,2-a]pyridin-3-yl]-2-(2,2,2-trifluoroethyl)-3,4-dihydroisoquinolin-1-one]
ColI (collagen I) extent vs. vehicle group [1]: statistically significant reduction of ColI (collagen I) extent
AUC of DAI vs. vehicle group [2]: statistical significant reduction of AUC of DAI
